Assay results: patent publication US12344611B2, “Bridged cycloformylpyridine derivatives and uses thereof” (BroadenBio Co., Ltd., priority 2019, dated 2025)
pEC50, pIC50: −log10 of the molar value.

How the values were obtained:
[1] = system: HuH-7 hepatoma cells; test: In vitro cell proliferation assay (CellTiter-Glo, CTG), HuH-7; format: cell-based; conditions: Homo sapiens, Huh-7, 96 h, HuH-7 cells
Description: (§1) In Vitro Cell Proliferation Assay of FGFR4 (CellTiter-Glo Luminescent Cell Viability Assay, CTG Assay)
(§2) Hep 3B hepatoma cells were purchased from Cell Resource Center of Peking Union College, and HuH-7 hepatoma cells were purchased from Shanghai Biological Technology Co., Ltd. enzyme research. The cells were prepared at a concentration of 3×10^4/mL, which was then added with 100 μL to each well of a 96-well transparent flat-bottom black-walled plate to make 3000 cells per well. Incubate overnight at 37° C. in 5% CO2 incubator. Dilute a compound and add it to the wells having the cells, then add cell culture medium to 200 μL per well. Put in CO2 incubator for incubation. After 96 hours, 100 μL of culture medium was removed from each well, 100 μL of CTG was added, and the 96-well plate was placed on a shaker for 10 minutes, and placed in the shade at room temperature for 45 minutes. Data was read out by SoftMax Pro i3X Microplate Reader of MD, analyzed by the software GraphPad Prism 5.0, and S-shaped dose-response curve was drawn, then the EC50 values were calculated.

[2] = system: Hep 3B tumor models; test: In vivo efficacy test, Hep3B subcutaneous xenograft in nude mice; design: species or system Nu/Nu nude mice; conditions: for tumor inhibition rate: gavage, twice a day, Hep3B xenograft, day 16
Description: Human hepatoma Hep3B cells and cell culture medium (EMEM) were purchased from ATCC. Antibiotics (penicillin, streptomycin) and Tryspin-EDTA were purchased from Gibco. Phosphate buffered saline (PBS) and fetal bovine serum (FBS) were purchased from Hyclone. Matrigel was purchased from Corning. Nu/Nu nude mice 6-8 weeks, female, purchased from Vitalriver.
Human hepatoma Hep3B cells were cultured in monolayer in vitro, and cultured in EMEM with 10% fetal bovine serum, 100 U/mL penicillin and 100 μg/mL streptomycin, 37° C., 5% CO2. Trypsin-EDTA was used twice a week for routine digestion and passage. When cell saturation reached 80%-90%, cells were harvested, counted, and seeded. 0.2 mL of 10×10^6 Hep3B cells were subcutaneously seeded on the right back of each nude mouse (PBS:Matrigel=1:1). Administration was started when the average tumor volume reached 128 mm^3.
The mice were administered by gavage, twice a day. Control group was given pure water. Three treatment groups were administered Compound 4, at the doses of 10 mg/kg, 30 mg/kg, and 60 mg/kg, respectively. Tumors were measured and weighed twice a week. By day 16, the average tumor volume in the control group had reached the humanitarian endpoint (2000 mm^3), and the experiment was terminated.
The data was processed by software such as Excel. […] The tumor inhibition effect was obvious in Hep 3B tumor models.

[3] = biological target: FGFR4 (Homo sapiens, UniProt P22455); test: In vitro biochemical kinase analysis of FGFR4 (HTRF KinEASE-TK); conditions: HTRF kinase assay
Description: In Vitro Biochemical Kinase Analysis of FGFR4
FGFR4 protein kinase detection kit was purchased from Cisbio (HTRF KinEASE-TK kit). Prepare 1× kinase reaction buffer. Transfer 10 nL of a diluted compound to each well of a reaction plate (784075, Greiner) with an Echo 550, and seal the plate with sealing film. The reaction plate was centrifuged at 1000 g for 1 minute. Prepare 2×FGFR4 using 1× kinase reaction buffer, add 5 μL of kinase to each well of the reaction plate, seal the plate, centrifuge at 1000 g for 30 seconds, and incubate it at room temperature for 10 minutes. Prepare a mixture of 2×TK-substrate-biotin and ATP using 1× kinase reaction buffer, add 5 μL of TK-substrate-biotin/ATP mixture to the reaction plate, seal the plate with sealing film, centrifuge at 1000 g for 30 seconds, and react at room temperature for 40 minutes. Prepare 2×Sa-XL 665 and TK-antibody-Cryptate mixture using HTRF detection buffer, add 10 μL Sa-XL 665 and TK-antibody-Cryptate mixture to each well, centrifuge at 1000 g for 30 seconds, and react at room temperature for 1 hour. Envision 2104 read fluorescence signals at 615 nm (Cryptate) and at 665 nm (XL665). IC50 of the compound was calculated using the GraphPad nonlinear fitting formula.

[4] = system: Hep 3B hepatoma cells; test: In vitro cell proliferation assay (CellTiter-Glo, CTG), Hep 3B; format: cell-based, human; conditions: Homo sapiens, Hep3B, 96 h, Hep 3B cells
Description: as §1, §2

FGFR4, sequence (P22455 22-802): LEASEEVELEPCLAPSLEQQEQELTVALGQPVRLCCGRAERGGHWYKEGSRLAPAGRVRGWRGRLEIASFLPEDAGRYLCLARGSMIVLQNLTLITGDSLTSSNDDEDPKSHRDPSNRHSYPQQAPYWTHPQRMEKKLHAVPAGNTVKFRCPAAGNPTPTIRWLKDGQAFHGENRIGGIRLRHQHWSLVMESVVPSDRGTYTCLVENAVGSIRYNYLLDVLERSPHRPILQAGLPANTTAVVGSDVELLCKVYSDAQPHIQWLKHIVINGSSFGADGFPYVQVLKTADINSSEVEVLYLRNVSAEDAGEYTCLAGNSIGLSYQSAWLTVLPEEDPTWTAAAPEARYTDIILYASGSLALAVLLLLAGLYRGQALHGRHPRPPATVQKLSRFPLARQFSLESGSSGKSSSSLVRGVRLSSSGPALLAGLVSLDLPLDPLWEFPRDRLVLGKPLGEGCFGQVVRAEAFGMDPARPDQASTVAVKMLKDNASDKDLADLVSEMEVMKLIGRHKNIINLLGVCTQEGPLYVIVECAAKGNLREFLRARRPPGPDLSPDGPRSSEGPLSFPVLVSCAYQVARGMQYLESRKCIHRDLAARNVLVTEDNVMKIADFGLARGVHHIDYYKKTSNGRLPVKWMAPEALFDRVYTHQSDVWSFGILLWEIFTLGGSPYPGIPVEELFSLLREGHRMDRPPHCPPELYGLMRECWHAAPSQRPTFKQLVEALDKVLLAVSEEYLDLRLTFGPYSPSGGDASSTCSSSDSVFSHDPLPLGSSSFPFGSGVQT

COCCNc1cc(NC(=O)N2c3nc(C=O)c(CN4CCN(C)CC4=O)cc3C3(F)CC2C3)ncc1C#N [Compound 4, N-(5-cyano-4-((2-methoxyethyl)amino)pyridin-2-yl)-4-fluoro-7-formyl-6-((4-methyl-2-oxopiperazin-1-yl)methyl)-3,4-dihydro-2,4-methylene-1,8-naphthyridine-1(2H)-carboxamide]
pEC50 [1]: 7.92
tumor inhibition rate ([2]; 30 mg/kg): 78%
tumor inhibition rate ([2]; 60 mg/kg): 97%
tumor inhibition effect ([2]; Hep 3B tumor models, in words): obvious
pIC50 [3]: 9.15
pEC50 [4]: 8.19

COCCNc1cc(NC(=O)N2c3nc(C=O)ccc3C3(NC(=O)C4CCN(C)C4)CC2C3)ncc1C#N (stereo not drawn) [Compound 40]
pEC50 [1]: 7.40
pIC50 [3]: 8.47
pEC50 [4]: 7.60

COCCNc1cc(NC(=O)N2c3nc(C=O)ccc3C3(NC(=O)CN4CCCC4)CC2C3)ncc1C#N [Compound 41]
pEC50 [1]: 7.88
pIC50 [3]: 8.47
pEC50 [4]: 7.92
